Experiment: gradient 5% acetonitrile 3 min, to 50% in 2 min, to 85% in 15 min, held 3 min, 100 µL/min
Details: column: Zorbax Extend-C18 2.1 x 50 mm; eluents: water / acetonitrile, 0.1% formic acid
How it was run: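 Mixtures of ~100 pure standards were chromatographed on a Zorbax Extend-C18 column (2.1 × 50 mm, 1.8 μm) at 100 μL/min using water and acetonitrile, each with 0.1% formic acid. Detection used a quadrupole time-of-flight mass spectrometer in positive and negative ionization mode, and data collection spanned 3 months. Retention time was obtained from adduct peaks picked computationally and each checked manually.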

Row | RP-LC retention time [s] | Structure (SMILES)
1 | 934 | Cn1cccc1C(=O)N1CC(c2nc(CCOCC3CCCC3)no2)C1
2 | 678 | CCOC(=O)c1sc(NC(=O)CSc2nccn2C)nc1-c1ccccc1
3 | 818 | O=C(O)CCCC(=O)Nc1nc(-c2cccc3ccccc23)cs1
4 | 849 | O=C(NCCC1=CCCCC1)C1CCN(C(=O)c2ncn3c2COC(c2ccc(F)cc2)C3)CC1 (stereo unspecified)
5 | 709 | COc1cc2c(cc1CNC(=O)C1CC1)OCCCO2
6 | 650 | CC1CCCN(CCCNC(=O)CCCn2c(=O)c3cccn3c3ccc(F)cc32)C1 (stereo unspecified)
7 | 764 | O=C(Nc1cc(-c2ccccc2)nn1CCO)c1ccc2nsnc2c1
8 | 835 | O=C1NC2(CCN(C(=O)c3ccc4c(c3)OCO4)CC2)N=C1c1cccc(Cl)c1
9 | 1300 | O=C1COc2ccc(Cl)cc2N1Cc1nc(-c2cccc(-c3csc(C4CC4)n3)c2)no1
10 | 668 | c1ccc(-c2nc3nc4c(c(N5CCN(C6CCCCC6)CC5)n3n2)CCCC4)cc1
11 | 587 | Cc1ccnc(N2CCC(C(=O)NCCCN(C)C3CCCCC3)CC2)n1
12 | 1020 | CC(C)n1c(=O)sc2cc(S(=O)(=O)N3CCC(C(=O)N4CCc5ccccc54)CC3)ccc21
13 | 668 | CC(C)(C)CC(=O)N1CCN(c2nc(CN3CCCCCC3)cs2)CC1
14 | 788 | Cn1c(=O)sc2cc(S(=O)(=O)N3CCC(C(=O)NCc4cccs4)CC3)ccc21
15 | 812 | CCc1ccc(CNC(=O)c2cc3n(n2)CC(C)(C(=O)NC2CCCC2)N(C)C3=O)cc1 (stereo unspecified)
16 | 838 | O=C(Nc1cccc(Cl)c1)C1CCc2nc(N3CCOCC3)ncc2C1 (stereo unspecified)
17 | 666 | O=C(NCc1ccc(F)cc1)C1CCN(c2cc(N3CCSCC3)ncn2)CC1
18 | 905 | Cc1nc(C)c(C(=O)N2CCCC2c2nc(CCOCC3CCCC3)no2)s1 (stereo unspecified)
19 | 1140 | CCOc1ccccc1CNC(=O)c1nnc(-c2ccc(S(=O)(=O)N3CCC(C)CC3)cc2)o1
20 | 634 | O=C(NC1CCCC1)N1CCC(OC2CCN(Cc3ccccc3)CC2)CC1
21 | 1050 | N#Cc1cccc(C(=O)N2CCCC2c2nc(-c3cccc(C(F)(F)F)c3)no2)c1 (stereo unspecified)
22 | 753 | CCn1cc(CN2CCC(C(=O)NC(C)c3ccccc3)CC2)c2cc(Cl)ccc21 (stereo unspecified)
23 | 666 | Cc1ccc2c(c1)C(O)(CC(=O)c1ccccc1)C(=O)N2 (stereo unspecified)
24 | 821 | COc1cccc(CNC(=O)C2CCCN2S(=O)(=O)c2ccc3c(c2)C(C)(C)C(=O)N3C)c1 (stereo unspecified)
25 | 631 | Cc1noc(C2CC3(CCN(C(=O)C4(c5ccccc5)CC4)CC3)CN2C)n1 (stereo unspecified)
26 | 712 | O=C(NCc1csc(C2CCCN(C(=O)c3ccccc3)C2)n1)C1CCC1 (stereo unspecified)
27 | 864 | CC(=O)N1c2ccc(S(=O)(=O)N3CCCCC3)cc2CC1C(=O)N(C)Cc1ccccc1 (stereo unspecified)

More lines, now with the values behind:

Row | Structure (SMILES) | RP-LC retention time [s]
28 | Cc1ccc(-n2nc(N3CCN(C(=O)Nc4ccc(F)cc4F)CC3)ccc2=O)cc1 | 781
29 | Nc1cc(-c2cccs2)nn1CCO | 562
30 | CCS(=O)(=O)c1nc2ccc(NS(=O)(=O)c3cc(OC)ccc3OC)cc2s1 | 833
31 | COC(=O)c1cccc(C(=O)Nc2ccc(C)cc2Cl)n1 | 1100
32 | Cc1ccc(CN2CCN(CC(=O)Nc3ccc4c(c3)OCO4)C(=O)C2=O)cc1 | 742
33 | CCn1cc(-c2ccc(Cl)cc2)cc1C(=O)N(C)C | 957
34 | CCOc1ccc(-c2cn3ccn(-c4ccc(C)c(C)c4)c(=O)c3n2)cc1 | 949
35 | COc1cccc(CNC(=O)Cn2c(=O)c(CCC(=O)NCC(C)C)nc3ccccc32)c1OC | 757
36 | Cc1ccc(C)c(-c2cc3c4nn(CC(=O)NC(C)C)c(=O)n4ccn3n2)c1 | 856
37 | C=CCn1nc(-c2nc(-c3cccc(Cl)c3)no2)ccc1=O | 1060
38 | Cc1cccc(CNc2cc(-n3ccnc3)ncn2)c1 | 656
39 | CCCn1ncc(N2CCC(C(=O)N(C)Cc3cn(C)nc3C)CC2)cc1=O | 619
40 | CCCCNC(=O)C1CCC(=O)N(c2ccc(OC)cc2)C1c1ccc(OC)cc1 (stereo unspecified) | 756
41 | COc1ccc(-n2c(=O)c3sccc3n(Cc3nc(-c4ccc(C)c(C)c4)no3)c2=O)cc1 | 1090
42 | O=C(C1=NN(c2ccc(F)cc2)c2ccc(F)cc2S1(=O)=O)N1CCOCC1 | 829
43 | Cc1c(-c2noc(-c3ccc4c(c3)OCO4)n2)nnn1Cc1ccc(F)cc1 | 999
44 | COCC1(O)CCOC2(CCN(Cc3cccc(Cl)c3F)CC2)C1 (stereo unspecified) | 560
45 | COc1ccc(Nc2nc(N3CCN(C)CC3)nc3c2C(=O)CCC3)cc1 | 645
46 | c1ccc2c(c1)-c1cccc3cncc-2c13 | 897
47 | COc1cccc(CNC2=NCCNC23CCN(S(=O)(=O)c2ccc(Cl)cc2)CC3)c1 | 738

Row | Structure (SMILES) | RP-LC retention time [s]
48 | COCCOCc1nc(C2CCN(S(=O)(=O)c3cccc4nsnc34)C2)no1 (stereo unspecified) | 769
49 | O=c1c(O[C@@H]2O[C@H](CO)[C@H](O)[C@H](O)[C@H]2O)c(-c2ccc(O)c(O)c2)oc2cc(O)cc(O)c12 | 656
50 | CCOc1ccc(NC(=O)c2cc3c(=O)n(CC)ccc3n2C)cc1 | 757
51 | COCCNC(=O)C1Cn2cccc2C(=O)N1C (stereo unspecified) | 570
52 | COC(=O)CCc1sc(Nc2ccccn2)nc1-c1ccc(OC)cc1 | 810
53 | Cc1ccc(NC(=O)NCCc2cn(CC(C)C)c3ncccc23)c(Cl)c1 | 937
54 | CCN1C(=O)CN(C(=O)CC(C)C)CC12CCOCC2 | 634
55 | O=S(=O)(c1cccn2c(SCc3ccc(F)cc3)nnc12)N1CCCC1 | 829
56 | COc1ccc(N2C=C(C#N)S(=O)(=O)c3c(F)cccc32)cc1OC | 844
57 | CCN1CCN(C(=O)c2cn(-c3cc(N4CCSCC4)ncn3)cn2)CC1 | 605
58 | CCc1noc(NC(C)=O)c1-c1ccc(C)c(S(=O)(=O)Nc2ccccc2C)c1 | 836
59 | Cc1nc(-c2cn(C(C)C)c3ncccc23)sc1C(=O)NCC(C)C | 975
60 | CS(=O)(=O)N1CCN(C(=O)c2ccc(-n3cccn3)nn2)CC1 | 601
61 | Cc1ccc(C)c(-n2ccn(Cc3nc(-c4ccc(C(C)(C)C)cc4)no3)c(=O)c2=O)c1 | 1130
62 | CC(C)Cn1nc2c(S(=O)(=O)N3CCOCC3)cccn2c1=O | 707
63 | CCCC(=O)Nc1ccc2c(c1)CN(C(=O)c1ccc(F)c(Cl)c1)C(C(=O)N(C)C)C2 (stereo unspecified) | 727
64 | Cc1cc(Cl)ccc1N1C(=O)CN(S(C)(=O)=O)CC1(C)C(=O)NCc1ccccc1 (stereo unspecified) | 863
65 | CC(C)CN(Cc1cccnc1)C1CN(S(=O)(=O)Cc2ccccc2)C1 | 719
66 | Cc1ccccc1-c1noc(Cn2nc(-c3ccc4c(c3)OCO4)ccc2=O)n1 | 943
